Drawing on a melting point compilation (Tetko et al.; mined from patent text by program, amines drawn as free bases though some values may be those of a salt), this text covers melting point for 88 molecules.

Usually melting point stands for the temperature of the solid-liquid transition. Turning to `Cc1cc(-c2ccc(Cl)cc2)nc(-n2cnc(-c3cccc(S(C)(=O)=O)c3)c2)n1`, the melting point was found to be 233 °C.
Regarding `O=C(COc1cc(Cl)c(Cl)c([N+](=O)[O-])c1)c1ccccc1`, the melting point was in the range of 118 to 126 °C.
The molecule `C=CC[C@H]1C(=O)N[C@H]2CCN(C(=O)OCc3ccccc3)[C@@H]21` (relative stereo) yielded a melting point of 160 °C.
With `CCCN(CCC)c1ccc2nc3c4ccccc4c(=Nc4ccncc4)cc-3oc2c1`, the melting point was 215 to 216 °C.
As to `Oc1ccc2c(c1)CCCC(c1ccccc1)=C2c1ccc(OCCCCCSCCCCF)cc1`, the melting point turned out to be 163 °C.
The figure for `O=Cc1ccc(C#Cc2cc3ncnc(Nc4ccc(OCc5cccc(F)c5)c(Cl)c4)c3s2)o1` is 229 °C.
The figure for `Cc1cccc(COCc2cccc(OCc3ccc4ccccc4n3)c2)c1C(=O)O` is 39 to 65 °C.
With `COc1ccc(CC2N(C)CCC(O)(c3ccccc3)C2(C)C)cc1` (stereo not drawn) the figure was 122 to 124 °C; with `C#CCC(C(=COC)c1cccnc1)c1ccc(Cl)cc1Cl` (stereo not drawn), 96 to 97 °C.
For `Cc1cc(Cl)ccc1NS(=O)(=O)c1cc(S(=O)(=O)Nc2ccc(Cl)cc2C)c2cc(O)ccc2c1`, the melting point lay within 140 to 142 °C.
With `CCc1cc(CCc2nc3ccccc3o2)c(=O)[nH]c1CO`, the melting point was in the range of 155 to 156 °C.
The figure for `OC1=Cc2ccccc2C=Cc2cc(Br)ccc21` is 148 to 151 °C.
`C1=Cc2ccccc2NC1` returned a melting point of 89 to 90 °C.
The figure for `CCCc1nc2c(N)nc3cccnc3c2n1CCOCCON=C(C)C` is 127 to 128 °C; for `CC(=O)C1=C(O)C(=C(C)Nc2ccc(OC(N)=O)cc2)C(=O)OC1=O` it is 213 to 215 °C.
The figure for `CCCCCCCCOc1cc(OC)cc(N)c1OCOC` is 59 °C; for `CCOC(=O)c1ccccc1OCNC(=O)CCCCCNC(=O)OC(C)(C)C` it is 120 to 121 °C; for `CC(C)(S)CN(Cc1ccccc1)C(=O)CCC(=O)O` it is 123 to 126 °C.
As to `CC(=O)NCOc1ccc(S(=O)(=O)N2C3CCC2CN(CC(=O)Nc2ccccc2C)C3)cc1`, the melting point was in the range of 205 to 206 °C.
Take `CC(C)Nc1nc2c(Cl)cccc2n1[C@H]1O[C@@H](CO)[C@H](O)[C@@H]1O`: the melting point is 225 to 227 °C.
For `CC1(C)CCC(C)(C)c2cc3c(=O)ccoc3cc21`, the melting point was 202 °C.
The molecule `C#Cc1ccc(C#N)cc1OC` yielded a melting point of 105 to 106 °C.
The figure for `COc1cc(OC)c2c(=O)[nH]c(-c3cc(C)c(CCCN4CCCC4)c(C)c3)nc2c1` is 194 to 196 °C; for `CCOC(=O)c1cc2c(C)c(C(=O)OCC)sc2[nH]1` it is 139 °C.
`C[C@@H](NC(=O)OCc1ccccc1)[C@H](O)C(=O)O` gave a melting point of 156 to 158 °C.
The figure for `CCCCCCCCCCCCCCCCOC[C@@H]1OCCC[C@H]1O` (relative stereo) is 41.5 to 43 °C; for `Cc1ccc(SC(CCCCCc2ccc(Cl)cc2)C(=O)O)cc1` (stereo not drawn) it is 58 to 61 °C.
`COc1ccc2oc(C(N)=O)c(-c3nnn[nH]3)c2c1` showed a melting point of 205 °C.
With `COc1cccc(Cc2ccc(N)c(C#N)c2)c1` the figure was 81 to 82 °C; with `COc1cc(Nc2nccc(-c3ccc(NCCCNC(C)C)nc3)n2)cc(OC)c1OC`, 124 to 125 °C.
With `CC(C)S(=O)(=O)c1cc(OCc2ccccc2)c2[nH]nc(N)c2c1` the figure was 179 to 180 °C.
Molecule `COc1cc(=O)c(-c2ccnn2-c2ccccc2)nn1-c1cccc(C(F)(F)F)c1` returned a melting point of 139 to 141 °C.
The figure for `O=C(O)Cc1ccccc1OCCNC(=O)C1Cc2ccccc2N1S(=O)(=O)c1ccc(-c2cccc(C(F)(F)F)c2)cc1` (stereo not drawn) is 131 to 134 °C; for `Cc1cc(CCCc2ccc(CO)c(CO)c2)ccc1O` it is 92 °C.
The figure for `CN(c1ccccc1)c1ncnc2c(I)cnn12` is 193 °C.
The figure for `C=CCn1nc(-c2ccc(OC)cc2)c(-c2ccc(OC)cc2)cc1=O` is 114 to 115 °C.
In turn, `O=C(N[C@H]1CC[C@H](CCN2CCC(c3cccc4c3CCO4)CC2)CC1)c1ccnc2ccccc12` displayed a melting point of 211 °C.
With `CCn1nc(Br)c([N+](=O)[O-])c1Br` the figure was 119 to 121 °C; with `O=C1Nc2c(cc(F)c(F)c2F)C1=O`, 193 to 194 °C.
Molecule `O=C(O)CCCOc1cc(-c2ccccc2)nc2ccccc12` registered a melting point of 264 °C.
With `Cc1nc(Nc2ccccc2)nc(C#N)c1C` the figure was 181 to 184 °C.
Consider `CCCCc1cnc(-c2ccc(N)cc2)nc1`, for which the melting point is 154 to 156 °C.
`COc1ccnc(-c2ccccc2S(=O)c2nc3cc(N)ccc3[nH]2)c1` (stereo not drawn) showed a melting point of 192 to 193 °C.
Regarding `Cc1cc(Oc2ncc(C(F)(F)F)cc2Cl)ccc1N=C=O`, the melting point fell in the range of 154 to 161 °C.
With `CC1=C(c2ccccc2)C(=O)N(C(C)(C)C(O)C(C)C)CO1` (stereo not drawn) the figure was 42 to 54 °C.
The figure for `O=C(O)CCC(=O)OC1CCCN(C(=O)Cn2c(=O)sc3ccc(Cl)cc32)C1` (stereo not drawn) is 131 to 133 °C.
In turn, `COc1cc(C#N)ccc1C` came in with a melting point of 51 to 52.5 °C.
The figure for `CCn1nnc(NC(=O)C2c3ccccc3COc3ccccc32)n1` (racemic) is 158 to 159 °C; for `Cc1ccc(S(=O)(=O)n2c(=O)[nH]c3cc(Cl)ccc3c2=O)cc1C` it is > 250 °C; for `COC(=O)COc1cccc2c1CCC(n1nc(-c3c(-c4ccccc4)nn4ccccc34)ccc1=O)C2=O` (stereo not drawn) it is 175 to 176 °C.
In turn, `Cc1cc(CCCOc2c(C)cc(C#N)cc2C)on1` returned a melting point of 46 to 48 °C.
Turning to `CCOC(=O)CNC(=O)CCCCCNC(=O)c1ccc(OC)cc1`, the melting point fell in the range of 106 to 107 °C.
The molecule `O=C(O)C1=C(c2cc(-c3ccccc3)[nH]n2)CCCC1` displayed a melting point of 207 to 209 °C.
With `NC(=O)c1ccc(F)c2c1CC(N(CCC(=O)c1c[nH]c3ccc(F)cc13)C1CCC1)CO2` (stereo not drawn) the figure was 139 °C; with `O=C(Cn1c(=O)sc2ccc(Cl)cc21)N1CCC(O)CC1`, 180 °C; with `O=C=Nc1ccc(F)cc1`, 93 to 94 °C.
Molecule `CC(C(=O)O)c1ccc(C(=O)c2ccc(Br)o2)cc1` (stereo not drawn) had a melting point of 108 to 110 °C.
The figure for `CCC(COC(C)=O)Nc1c(-c2c(F)cc(F)cc2F)c(Cl)nc2ncnn12` (stereo not drawn) is 39 to 42 °C; for `COc1ccc2c(C(=O)c3ccc(OC4CCCCC4N4CCOCC4)cc3)c(-c3ccc(OCCN4CCCC4)cc3)sc2c1` (stereo not drawn) it is 50 to 57 °C.
With `O=C1C(C2=NCCS2)c2ccccc2N1C1=NCCS1` (stereo not drawn) the figure was 204 to 205 °C; with `CC(=S)NC[C@H]1CN(c2ccc3c(c2)CCCc2cn[nH]c2-3)C(=O)O1`, 190 to 195 °C.
`CCOC(=O)c1ccc(CCN2CCN(C(=O)CCc3cc(C(C)(C)C)c(O)c(C(C)(C)C)c3)CC2)cc1` registered a melting point of 105 to 107 °C.
With `CCCC1c2c(ccc(C(C)=O)c2O)OC1COc1ccc(CC(=O)O)cc1` (stereo not drawn) the figure was 104 to 106 °C; with `CS(=O)(=O)c1c[nH]nc1C(CCCC(=O)C1CCCCC1)CO[N+](=O)[O-]` (stereo not drawn), 111 to 113 °C.
The figure for `CC(C)CN1CCC(CNc2ccc(Cl)cc2C(=O)Nc2ccc(Cl)cn2)CC1` is 121 to 122 °C; for `Cc1nc(-c2ccc(N3CC(CN4CCN(C(CC(=O)OCc5ccccc5)C(=O)OCc5ccccc5)CC4)OC3=O)cc2)no1` (stereo not drawn) it is 119 °C.
In the case of `Cc1noc(C)c1-c1cn(Cc2ccccc2)c(=O)c2cccnc12`, the melting point lay within 192 to 195 °C.
For the molecule `COC(=O)C1=CC=C(/C=C/c2ccc(OC)cc2)C2=CC(C(C)C)=CC=C(C)C2=C1C(=O)OC`, the melting point fell in the range of 161 to 162 °C.
In turn, `CCCCNc1c(C(=O)OCC)cnc2c1c(C)nc1cc(C)nn12` gave a melting point of 114 to 116 °C.
`CCc1c(N)cccc1NC(=O)c1ccc(Br)cc1` displayed a melting point of 169 to 170 °C.
`CCOC(=O)c1ccc(-n2nc(-c3ccccc3O)nc2-c2ccccc2O)cc1` came in with a melting point of 148 to 149 °C.
The figure for `c1ccc2c(c1)CC[C@H]1O[C@@H]21` is 47 to 48 °C.
With `COc1cccc2c1C(=O)c1nc(-c3ccccc3)sc1C2=O` the figure was 245 °C.
The figure for `COc1cc(COc2nn(-c3ccccc3)cc2/C=C/C2=NCCO2)ccc1OCc1nc(-c2ccco2)oc1C` is 162 to 163 °C; for `Cc1ncn(Nc2ccccc2)c1-c1ccccc1` it is 165 to 167 °C; for `CCOC(=O)c1cc(C(=O)CBr)c(=O)[nH]c1C(=O)OCC` it is 141 to 142 °C.
On to `CSc1sc(C(=O)N2CCOCC2)c2c1-c1oncc1C(C)(C)C2`, for which the melting point fell in the range of 175 to 177 °C.
Molecule `COc1ccc(C)c(Nc2c(C#N)cnc3c2C=C2N=C(NCCN4CCOCC4)N=C2C3)c1` showed a melting point of 148 to 150 °C.
The figure for `O=C(NC1CCCC1)c1ccc(S(=O)(=O)Cl)cc1` is 143 °C; for `O=C(Nc1ccc(OC(F)(F)F)cc1)c1cccc(Cl)c1[N+](=O)[O-]` it is 171 to 172 °C; for `CN1C(=O)C(c2ccc[nH]2)=C(c2cn(C(=O)OC(C)(C)C)c3ccccc23)C1=O` it is 82 to 83 °C.
With `COc1cc(OC)cc(C(=CC#N)c2ccc3ncccc3c2)c1` the figure was 142 to 144 °C; with `O=C(O)CC1CCC(N2CCN(c3ccncc3)CC2)CC1` (stereo not drawn), 225 to 227 °C; with `CCOC(=O)c1cn(-c2cc(NC(=O)OC(C)(C)C)c(F)cc2F)c2c(C)c(F)c(F)c([N+](=O)[O-])c2c1=O`, 188 to 189 °C.
`CC(C)(C)OC(=O)NC1C(=O)N(OCc2ccccc2)C12CCC2` (stereo not drawn): the melting point is 156 to 157 °C.
For `Cc1nc(-c2cc(C(C)(C)C)c3c(c2)C(C)(C)CO3)no1`, the melting point lay in the range of 81 to 82 °C.
For `COc1ccccc1[C@H](c1cccc2ccccc12)[C@@](C)(C#N)C(=O)N1CC=C(c2ccc(Cl)cc2)CC1`, the melting point fell in the range of 118 to 122 °C.
Molecule `CCCC(=O)c1cnc2c(OC)cccc2c1Nc1ccc(O)cc1` registered a melting point of 270 to 272 °C.
